Assay results from patent publication US8063035B2, “Triazolyl aminopyrimidine compounds” (Eli Lilly and Company, priority 2007, dated 2011).
Read-outs that look alike come from different tables or passages of the source.

Legend:
[1] = in man; cited from earlier work
NCIH460 = NCIH460 murine xenograft; cited from earlier work
[2] = in man, phase II clinical trials; cited from earlier work
HCT116 = HCT116 murine xenograft; cited from earlier work
A549 = A549 murine xenograft; cited from earlier work
HCT116 cells = test: Antiproliferative Assay; format: cell-based; settings: Homo sapiens, HCT-116, 72 hours, Alamar Blue, n=2, MSR 3.1
Method: The effects of compounds on cell proliferation can be determined using cells and cell proliferation methods well-known in the art (Robert C. Squatrito et al., Gynecological Oncology, 58, 101-105, (1995)). For example, HCT116 cells, which may be obtained from the American Type Culture Collection, may be seeded at ˜2000 cells/well in 96-well plates and allowed to attach overnight in a humidified CO2 incubator at 37° C. Following the 20-24 hour incubation, half-log serially diluted compounds are added and the plates are returned to the incubator. After an appropriate length of exposure (e.g., 72 hours), cell proliferation is estimated using well-known methods. In one method, 10 μL of a tetrazolium salt, such as Alamar Blue™ is added to the cell plates.

HeLa Cells = test: pHH3(S10), Mitotic Cells, and DNA Content Assays; format: cell-based; settings: Homo sapiens, 23 hours exposure
Method: HeLa Cells are plated at 200 cells/well in 96 well […] BIOCOAT™ plates, and are incubated in MEM (Minimum Essential Medium) with 10% FBS (Fetal Bovine Serum) in 37° C., 5% CO2 for 24 hours. Cells are treated by adding compound (in 0.25% DMSO) to the medium, dosing at 10 points across the range 0.5 μM to 0.0098 μM. After 23 hours exposure to the compounds, cells are fixed, for example with the PREFER™ fixative for 30 min then are permeablized with 0.1% TRITON® X100 in phospate buffered saline (PBS) solution for 15 min. Cells are washed 3 times with PBS then digested with 50 μg/mL RNAse. Primary antibody, anti-phosphohistone H3 Serine 10, is added at 1:500 in PBS with 1% bovine serum albumin (BSA) to the cells over night at 4° C. After 3 PBS washes, cells are incubated with Alexa488 labeled secondary antibody for 1 hour at room temperature. Again they are washed 3 times with PBS, and then 15 μM propidium iodide is added for 30 min to stain nuclei. Fluorescence Plates are scanned with ACUMEN EXPLORER™ [Laser-scanning fluorescence microplate cytometer (comprising of 488 nm argon ion laser excitation and multiple photomultiplier tube detection), manufactured by TTP LABTECH LTD] to measure phosphohistone H3, DNA content and mitotic cells as measured by DNA condensation. Image analysis are based on cellular fluorescent signals for identifying cells in different subpopulations. pHH3(S10) positive cells are identified by mean intensity at 500-530 nm above the threshold. Total intensity at 655-705 nm from propidium iodide/DNA is used to identify individual cells (cells with DNA content from 2N to 4N) and subpopulations in cell cycle (2N cells, 4N cells). Peak intensity at 575-640 nm is used to identify DNA condensation that is used as the marker to identify mitotic cells among 4N cells. Assay outputs are percentage of each identified subpopulations, % pHH3, % 2N, % 4N, % mitotic and total cell number. The EC50 is determined by curve fitting to a four parameter logistic for each output using ACTIVITY BASE™.

[3] = biological target: T1, Plk1-Flag-His6 tag fusion enzyme (Homo sapiens, UniProt P53350); test: Plk1 Inhibition Assay; format: biochemical; settings: absolute IC50, 5.0 μM ATP, GST-Cdc25c (1-206) substrate, 60 min; MSR 3.6
T1 construct: FLAG (C); His6 (C); made in house; host or cells: Sf9 insect cells (baculovirus, pFastBac), treated with okadaic acid before harvest; The substrate was made in E. coli BL21 (pGEX-2T)
T1 sequence (P53350 whole entry, the tested form may be a part): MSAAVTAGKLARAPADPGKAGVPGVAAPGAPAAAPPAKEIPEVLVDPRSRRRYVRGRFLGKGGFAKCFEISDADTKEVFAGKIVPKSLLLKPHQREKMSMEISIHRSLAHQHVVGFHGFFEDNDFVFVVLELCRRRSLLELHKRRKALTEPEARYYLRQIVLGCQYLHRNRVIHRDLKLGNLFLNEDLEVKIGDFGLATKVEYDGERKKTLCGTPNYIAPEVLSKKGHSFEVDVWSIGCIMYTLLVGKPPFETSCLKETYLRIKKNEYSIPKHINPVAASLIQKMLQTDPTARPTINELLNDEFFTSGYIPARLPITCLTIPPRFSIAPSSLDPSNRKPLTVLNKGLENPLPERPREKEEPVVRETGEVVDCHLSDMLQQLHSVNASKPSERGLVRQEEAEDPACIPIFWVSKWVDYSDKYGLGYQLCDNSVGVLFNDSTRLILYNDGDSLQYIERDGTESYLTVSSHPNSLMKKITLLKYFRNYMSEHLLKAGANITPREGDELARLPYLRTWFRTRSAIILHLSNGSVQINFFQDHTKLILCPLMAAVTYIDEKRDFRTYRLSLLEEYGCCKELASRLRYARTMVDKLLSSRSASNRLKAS
Text: Human Plk1 cDNA may be directly linked at one of its termini with a polynucleotide sequence expressing a His6 tag, such as the C-terminal FLAG-His6 tag, and inserted into an appropriate expression vector, such as a pFastBac™ vector (Invitrogen) and transfected into an appropriate system, such as baculovirus similar to what has been reported by Yue-Wei Qian, et al., Science, 282, 1701 (1998) for xPlkk1. If a viral expression system is used, then the virus (e.g., baculovirus bearing a Plk1-Flag-His6 tag polynucleotide construct) is infected into a culture of a suitable host cell, such as Sf9 cells. […]
Plk1 kinase reactions contain Plk1-Flag-His6 tag fusion enzyme (0.2 ng/μL) in a buffer containing 50 mM HEPES, pH 7.3, 1.0 mM dithiothreitol, 5.0 μM ATP, 10 mM MgCl2, 0.01% TRITON® X-100, 0.4 μCi ^33P-ATP, and […] GST-Cdc25c (1-206) peptide. […] Wells are dried before addition of 40 μL of MicroScint™20 (Packard) and then counted on a Wallac MICROBETA® Jet. The percentage inhibition values from the 10-point concentration response data are subsequently analyzed, for example, using ACTIVITY BASE™ software (IDBS), using a 4-parameter logistic equation. Absolute IC50 values are calculated from the resulting curve fit.

| IC50 (HCT116 cells) [nM] | EC50 (HeLa Cells; MSR 2.4, read-out: DNA content EC50) [nM] | EC50 (HeLa Cells; MSR 2.5, read-out: mitotic EC50) [nM] | EC50 (HeLa Cells; MSR 2.6, read-out: pHH3(s10) EC50) [nM] | IC50 [3] [nM] | Structure (SMILES) | clearance (CL) [1] [mL/min] | activity in preclinical model (NCIH460) | dose-limiting toxicity [2] | activity in preclinical model (HCT116) | activity in preclinical model (A549) |
| --- | --- | --- | --- | --- | --- | --- | --- | --- | --- | --- |
| – | – | – | – | – | CC[C@@H]1C(=O)N(C)c2cnc(Nc3ccc(C(=O)NC4CCN(C)CC4)cc3OC)nc2N1C1CCCC1 [BI-2536] | > 1000 | demonstrated activity | dose limited by myelosupression | demonstrated activity | demonstrated activity |
| 119 | 40 | 36 | 37 | 11 | CC(N)c1ccc(F)cc1-c1cccc2cc(-c3nc(NCCn4ccnn4)ncc3F)sc12 (racemic) [Example 57, N-(2-(1H-1,2,3-Triazol-1-yl)ethyl)-4-(7-(2-(1-amino-ethyl)-5-fluorophenyl)-benzo[b]thiophen-2-yl)-5-fluoropyrimidin-2-amine] | – | – | – | – | – |
